Data taken from patent publication US10577363B2, “Substituted piperidine compounds” (EPIZYME, INC., priority 2014, dated 2020).

How the values were obtained:
SMYD3 [1] = biological target: T1, SMYD3 (Homo sapiens (Human), UniProt Q9H7B4); assay: SMYD3 biochemical assay (SPA, 3H-SAM methylation of MEKK2 protein substrate); settings: read-out: SMYD3 Biochem IC50 (μM)*
Method in brief: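 Native full-length human SMYD3 (E. coli-expressed, tags removed) was preincubated with compound for 30 min at room temperature in 25 mM Tris-Cl pH 8.0, 1 mM TCEP, 0.005% BSG, 0.005% Tween 20. Reaction was started with 3H-SAM plus GST-MEKK2, quenched with 100 uM unlabeled SAM, and read by SPA scintillation counting.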

SMYD3 [2] = biological target: T1, SMYD3; assay: SMYD3 cell assay (Trimethyl-MEKK2 In-Cell Western in 293T/17 cells); format: cell-based; settings: 293T/17 cells; read-out: SMYD3 Cell IC50 (μM)*
Method in brief: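 In-Cell Western ratio of trimethyl-Lys260 MEKK2 to anti-flag signal; percent inhibition from DMSO and maximum-inhibition controls, IC50 by non-linear regression, triplicates.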

T1 sequence (Q9H7B4 whole entry): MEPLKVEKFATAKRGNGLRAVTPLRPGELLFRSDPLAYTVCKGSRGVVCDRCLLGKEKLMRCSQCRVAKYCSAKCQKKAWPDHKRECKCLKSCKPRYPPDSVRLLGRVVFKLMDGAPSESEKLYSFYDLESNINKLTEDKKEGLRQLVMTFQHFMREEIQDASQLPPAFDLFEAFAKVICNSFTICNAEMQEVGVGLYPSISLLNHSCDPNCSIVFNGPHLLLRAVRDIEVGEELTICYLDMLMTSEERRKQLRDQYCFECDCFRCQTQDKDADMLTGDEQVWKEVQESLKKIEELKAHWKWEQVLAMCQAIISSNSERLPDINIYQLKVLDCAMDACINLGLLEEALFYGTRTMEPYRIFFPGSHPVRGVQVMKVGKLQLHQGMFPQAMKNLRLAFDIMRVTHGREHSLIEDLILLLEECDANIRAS

For `C[C@@H]1C[C@H](NC(=O)c2cc(C3CC3)on2)CCN1S(=O)(=O)CCc1ccccc1` [compound 295, 5-cyclopropyl-N-((2R,4R)-2-methyl-1-(phenethylsulfonyl)piperidin-4-yl)isoxazole-3-carboxamide], the IC50 (SMYD3 [1]) was > 10 µM and the IC50 (SMYD3 [2]) was > 40 µM.

`N[C@H]1CC[C@H](C(=O)N2CC[C@@H](NC(=O)c3cc(C4CC4)on3)C[C@H]2Cc2ccccc2)CC1` [compound 309, N-((2R,4R)-1-((1r,4R)-4-aminocyclohexane-1-carbonyl)-2-benzylpiperidin-4-yl)-5-cyclopropylisoxazole-3-carboxamide] showed an IC50 (SMYD3 [1]) of 1.18 µM and an IC50 (SMYD3 [2]) of 16.8 µM.

In the case of `N[C@H]1CC[C@H](C(=O)N2CC[C@H](NC(=O)c3cc(C4CC4)on3)C[C@@H]2Cc2ccccc2)CC1` [compound 310, N-((2S,4S)-1-((1r,4S)-4-aminocyclohexane-1-carbonyl)-2-benzylpiperidin-4-yl)-5-cyclopropylisoxazole-3-carboxamide], the IC50 (SMYD3 [1]) is reported as 0.733 µM and the IC50 (SMYD3 [2]) is reported as 8.1 µM.

In the case of `C[C@@H]1C[C@H](NC(=O)c2cc(C3CC3)on2)CCN1C(=O)CC(CN)c1ccccc1` (stereo partly drawn) [compound 314, N-((2R,4R)-1-(4-amino-3-phenylbutanoyl)-2-methylpiperidin-4-yl)-5-cyclopropylisoxazole-3-carboxamide], the IC50 (SMYD3 [1]) is reported as 4.73 µM and the IC50 (SMYD3 [2]) is reported as > 40 µM.

`C[C@H]1C[C@@H](NC(=O)c2cc(C3CC3)on2)CCN1S(=O)(=O)N(C)C` [compound 315, 5-cyclopropyl-N-((2S,4S)-1-(N,N-dimethylsulfamoyl)-2-methylpiperidin-4-yl)isoxazole-3-carboxamide] showed an IC50 (SMYD3 [1]) of 1.33 µM and an IC50 (SMYD3 [2]) of 4.84 µM.

In the case of `CCCCS(=O)(=O)N1CC[C@H](NC(=O)c2cc(C3CC3)on2)C[C@@H]1C` [compound 316, N-((2S,4S)-1-(butylsulfonyl)-2-methylpiperidin-4-yl)-5-cyclopropylisoxazole-3-carboxamide], the IC50 (SMYD3 [1]) is reported as 0.237 µM and the IC50 (SMYD3 [2]) is reported as 0.782 µM.

In the case of `C[C@H]1C[C@@H](NC(=O)c2cc(C3CC3)on2)CCN1S(=O)(=O)c1cccnc1` [compound 317, 5-cyclopropyl-N-((2S,4S)-2-methyl-1-(pyridin-3-ylsulfonyl)piperidin-4-yl)isoxazole-3-carboxamide], the IC50 (SMYD3 [1]) is reported as 0.686 µM and the IC50 (SMYD3 [2]) is reported as 4.11 µM.

Molecule `C[C@H]1C[C@@H](NC(=O)c2cc(C3CC3)on2)CCN1S(=O)(=O)Cc1cccnc1` [compound 319, 5-cyclopropyl-N-((2S,4S)-2-methyl-1-((pyridin-3-ylmethyl)sulfonyl)piperidin-4-yl)isoxazole-3-carboxamide] has an IC50 (SMYD3 [1]) of 1.43 µM and an IC50 (SMYD3 [2]) of 4.53 µM.

Work on `C[C@@H]1C[C@H](NC(=O)c2cc(C3CC3)on2)CCN1S(=O)(=O)N(C)C` [compound 328, 5-cyclopropyl-N-((2R,4R)-1-(N,N-dimethylsulfamoyl)-2-methylpiperidin-4-yl)isoxazole-3-carboxamide] yielded an IC50 (SMYD3 [1]) of 6.91 µM and an IC50 (SMYD3 [2]) of 15.2 µM.

For `C[C@@H]1C[C@H](NC(=O)c2cc(C3CC3)on2)CCN1S(=O)(=O)Cc1cccnc1` [compound 329, 5-cyclopropyl-N-((2R,4R)-2-methyl-1-((pyridin-3-ylmethyl)sulfonyl)piperidin-4-yl)isoxazole-3-carboxamide], the IC50 (SMYD3 [1]) was 6.42 µM and the IC50 (SMYD3 [2]) was 20 µM.

For `CC(=O)Nc1ccc(S(=O)(=O)N2CC[C@@H](NC(=O)c3cc(C4CC4)on3)C[C@H]2C)cc1` [compound 330, N-((2R,4R)-1-((4-acetamidophenyl)sulfonyl)-2-methylpiperidin-4-yl)-5-cyclopropylisoxazole-3-carboxamide], the IC50 (SMYD3 [1]) was > 10 µM and the IC50 (SMYD3 [2]) was 29.3 µM.

Molecule `CCOC(=O)C1CN(S(=O)(=O)CCCN)CCC1NC(=O)c1cc(C2CC2)on1` (stereo not drawn) [compound 331, ethyl 1-((3-aminopropyl)sulfonyl)-4-(5-cyclopropylisoxazole-3-carboxamido)piperidine-3-carboxylate] has an IC50 (SMYD3 [1]) of 0.147 µM and an IC50 (SMYD3 [2]) of 2.31 µM.

In the case of `NCCCC(=O)N1CC[C@@H](NC(=O)c2cc(C3CC3)on2)C[C@H]1Cc1ccccc1` [compound 333, N-((2R,4R)-1-(4-aminobutanoyl)-2-benzylpiperidin-4-yl)-5-cyclopropylisoxazole-3-carboxamide], the IC50 (SMYD3 [1]) is reported as > 10 µM and the IC50 (SMYD3 [2]) is reported as > 40 µM.

For `NCCCC(=O)N1CC[C@@H](NC(=O)c2cc(C3CC3)on2)C[C@@H]1Cc1ccccc1` [compound 334, N-((2S,4R)-1-(4-aminobutanoyl)-2-benzylpiperidin-4-yl)-5-cyclopropylisoxazole-3-carboxamide], the IC50 (SMYD3 [1]) was 1.9 µM and the IC50 (SMYD3 [2]) was 33 µM.

`NCCCC(=O)N1CC[C@H](NC(=O)c2cc(C3CC3)on2)C[C@H]1Cc1ccccc1` [compound 335, N-((2R,4S)-1-(4-aminobutanoyl)-2-benzylpiperidin-4-yl)-5-cyclopropylisoxazole-3-carboxamide] was tested, and the IC50 (SMYD3 [1]) was 1.12 µM and the IC50 (SMYD3 [2]) was 19.6 µM.

`NCCCC(=O)N1CC[C@H](NC(=O)c2cc(C3CC3)on2)C[C@@H]1Cc1ccccc1` [compound 336, N-((2S,4S)-1-(4-aminobutanoyl)-2-benzylpiperidin-4-yl)-5-cyclopropylisoxazole-3-carboxamide] was tested, and the IC50 (SMYD3 [1]) was 0.0541 µM and the IC50 (SMYD3 [2]) was 1.62 µM.

Work on `C[C@H]1C[C@@H](NC(=O)c2cc(C3CC3)on2)CCN1C(=O)CC(C)(C)CN` [compound 337, N-((2S,4S)-1-(4-amino-3,3-dimethylbutanoyl)-2-methylpiperidin-4-yl)-5-cyclopropylisoxazole-3-carboxamide] yielded an IC50 (SMYD3 [1]) of 0.961 µM and an IC50 (SMYD3 [2]) of 13 µM.

In the case of `C[C@H]1C[C@@H](NC(=O)c2cc(C3CC3)on2)CCN1C(=O)c1ccc2[nH]cnc2c1` [compound 340, N-((2S,4S)-1-(1H-benzo[d]imidazole-5-carbonyl)-2-methylpiperidin-4-yl)-5-cyclopropylisoxazole-3-carboxamide], the IC50 (SMYD3 [1]) is reported as > 10 µM and the IC50 (SMYD3 [2]) is reported as > 40 µM.

Molecule `C[C@@H]1C[C@H](NC(=O)c2cc(C3CC3)on2)CCN1C(=O)c1ccc2[nH]cnc2c1` [compound 341, N-((2R,4R)-1-(1H-benzo[d]imidazole-5-carbonyl)-2-methylpiperidin-4-yl)-5-cyclopropylisoxazole-3-carboxamide] has an IC50 (SMYD3 [1]) of 1 µM and an IC50 (SMYD3 [2]) of 6.01 µM.

With `O=C(N[C@@H]1CCN(C(=O)CC2CCNCC2)[C@H](Cc2ccccc2)C1)c1cc(C2CC2)on1` [compound 349, N-((2R,4R)-2-benzyl-1-(2-(piperidin-4-yl)acetyl)piperidin-4-yl)-5-cyclopropylisoxazole-3-carboxamide] the IC50 (SMYD3 [1]) was 2.27 µM and the IC50 (SMYD3 [2]) was > 40 µM.

Molecule `C[C@@H]1C[C@H](NC(=O)c2cc(C3CC3)on2)CCN1S(=O)(=O)c1ccccc1` [compound 351, 5-cyclopropyl-N-((2R,4R)-2-methyl-1-(phenylsulfonyl)piperidin-4-yl)isoxazole-3-carboxamide] has an IC50 (SMYD3 [1]) of 3.09 µM and an IC50 (SMYD3 [2]) of 7.83 µM.

`C[C@H]1C[C@@H](NC(=O)c2cc(C3CC3)on2)CCN1S(=O)(=O)c1ccccc1` [compound 352, 5-cyclopropyl-N-((2S,4S)-2-methyl-1-(phenylsulfonyl)piperidin-4-yl)isoxazole-3-carboxamide] showed an IC50 (SMYD3 [1]) of 0.152 µM and an IC50 (SMYD3 [2]) of 0.996 µM.

With `C[C@@H]1C[C@H](NC(=O)c2cc(C3CC3)on2)CCN1S(=O)(=O)c1cccc(C#N)c1` [compound 354, N-((2R,4R)-1-((3-cyanophenyl)sulfonyl)-2-methylpiperidin-4-yl)-5-cyclopropylisoxazole-3-carboxamide] the IC50 (SMYD3 [1]) was 1.14 µM and the IC50 (SMYD3 [2]) was 5.65 µM.

`C[C@H](C(=O)N1CC[C@H](NC(=O)c2cc(C3CC3)on2)C[C@@H]1C)C1CCNCC1` [compound 360, 5-cyclopropyl-N-((2S,4S)-2-methyl-1-((S)-2-(piperidin-4-yl)propanoyl)piperidin-4-yl)isoxazole-3-carboxamide] was tested, and the IC50 (SMYD3 [1]) was 0.792 µM and the IC50 (SMYD3 [2]) was 8.28 µM.

With `C[C@@H](C(=O)N1CC[C@H](NC(=O)c2cc(C3CC3)on2)C[C@@H]1C)C1CCNCC1` [compound 361, 5-cyclopropyl-N-((2S,4S)-2-methyl-1-((R)-2-(piperidin-4-yl)propanoyl)piperidin-4-yl)isoxazole-3-carboxamide] the IC50 (SMYD3 [1]) was 1.36 µM and the IC50 (SMYD3 [2]) was 13.6 µM.

`C[C@@H]1C[C@H](NC(=O)c2cc(C3CC3)on2)CCN1C(=O)c1cccc(C(C)(C)N)c1` [compound 365, N-((2R,4R)-1-(3-(2-aminopropan-2-yl)benzoyl)-2-methylpiperidin-4-yl)-5-cyclopropylisoxazole-3-carboxamide] gave an IC50 (SMYD3 [1]) of 0.454 µM and an IC50 (SMYD3 [2]) of 3.88 µM.

Molecule `C[C@H]1C[C@@H](NC(=O)c2cc(C3CC3)on2)CCN1C(=O)c1cccc(C(C)(C)N)c1` [compound 367, N-((2S,4S)-1-(3-(2-aminopropan-2-yl)benzoyl)-2-methylpiperidin-4-yl)-5-cyclopropylisoxazole-3-carboxamide] has an IC50 (SMYD3 [1]) of 4.29 µM and an IC50 (SMYD3 [2]) of 30.6 µM.

`C[C@@H]1C[C@H](NC(=O)c2cc(C3CC3)on2)CCN1C(=O)c1ccc(C(C)(C)N)cc1` [compound 368, N-((2R,4R)-1-(4-(2-aminopropan-2-yl)benzoyl)-2-methylpiperidin-4-yl)-5-cyclopropylisoxazole-3-carboxamide] gave an IC50 (SMYD3 [1]) of 0.122 µM and an IC50 (SMYD3 [2]) of 1.04 µM.

In the case of `C[C@H]1C[C@@H](NC(=O)c2cc(C3CC3)on2)CCN1C(=O)c1ccc(C(C)(C)N)cc1` [compound 370, N-((2S,4S)-1-(4-(2-aminopropan-2-yl)benzoyl)-2-methylpiperidin-4-yl)-5-cyclopropylisoxazole-3-carboxamide], the IC50 (SMYD3 [1]) is reported as 4.39 µM and the IC50 (SMYD3 [2]) is reported as > 40 µM.

Molecule `C[C@H]1C[C@@H](NC(=O)c2cc(C3CC3)on2)CCN1C(=O)C1CCCC(CN)C1` (stereo partly drawn) [compound 373, N-((2S,4S)-1-(3-(aminomethyl)cyclohexane-1-carbonyl)-2-methylpiperidin-4-yl)-5-cyclopropylisoxazole-3-carboxamide] has an IC50 (SMYD3 [1]) of 2.47 µM and an IC50 (SMYD3 [2]) of 29.8 µM.
